Measured values reported in patent US20230322776A1, “NEW ARYL-PYRIDO-PYRIMIDIN-ONE DERIVATIVES” (Hoffmann-La Roche Inc., priority 2020, published 2023).

How the values were obtained:
BRAF V660E = BRAF V660E (Homo sapiens, UniProt P15056, V600E); assay: KD BRAF V660E (Table 1; no method described); format: binding
BRAF = BRAF (Homo sapiens, UniProt P15056); assay: KD BRAF (Table 1; no method described); format: binding
[1] = system: HCT116 cells (WT BRAF), ERK phospho-T202/Y204; assay: HTRF assay for P-ERK determination in HCT116 cells (BRAF activation, paradox); format: cell-based; conditions: for EC50: Homo sapiens, HCT-116, HCT116 cells, 1 hour drug incubation, activation relative to maximum Dabrafenib-mediated activation (100%), top concentration 10 μM, read-out: P-ERK_HCT-116: EC50—50PCT; for Fold Selectivity HCT-116 EC50-50/ A375: ratio of P-ERK HCT-116 EC50-50PCT to P-ERK A375 IC50
Procedure, shortened: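 HCT116 (WT BRAF) cells, 8000/well in DMEM + 10% FBS, treated 1 h with compound at 0.001–10 μM in duplicate; lysed, then HTRF antibodies for ERK phospho-T202/Y204, read after overnight dark incubation at room temperature. Blank-subtracted ratio normalized to DMSO (0%) and peak dabrafenib signal (100%); sigmoidal or bell-shaped fit gives % activation.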

[2] = system: A375 cells (V600E mutated BRAF), ERK phospho-T202/Y204; assay: HTRF assay for P-ERK determination in A375 cells (BRAF inhibition); format: cell-based; conditions: Homo sapiens, A-375, 1 hour drug incubation, DMSO = 100%, 10 μM Dabrafenib = 0%, top concentration 10 μM, read-out: P-ERK_A375: IC50
Procedure, shortened: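 A375 cells (V600E BRAF), 8000/well, treated 1 h with compounds at 0.001–10 μM final in duplicate; lysed and phospho-ERK (Thr202/Tyr204) read by HTRF at 665/620 nm after overnight RT incubation. Blank-subtracted ratios normalized to DMSO (100%) and 10 μM dabrafenib (0%); IC50 from sigmoidal fit.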

Sequence of BRAF (P15056 whole entry): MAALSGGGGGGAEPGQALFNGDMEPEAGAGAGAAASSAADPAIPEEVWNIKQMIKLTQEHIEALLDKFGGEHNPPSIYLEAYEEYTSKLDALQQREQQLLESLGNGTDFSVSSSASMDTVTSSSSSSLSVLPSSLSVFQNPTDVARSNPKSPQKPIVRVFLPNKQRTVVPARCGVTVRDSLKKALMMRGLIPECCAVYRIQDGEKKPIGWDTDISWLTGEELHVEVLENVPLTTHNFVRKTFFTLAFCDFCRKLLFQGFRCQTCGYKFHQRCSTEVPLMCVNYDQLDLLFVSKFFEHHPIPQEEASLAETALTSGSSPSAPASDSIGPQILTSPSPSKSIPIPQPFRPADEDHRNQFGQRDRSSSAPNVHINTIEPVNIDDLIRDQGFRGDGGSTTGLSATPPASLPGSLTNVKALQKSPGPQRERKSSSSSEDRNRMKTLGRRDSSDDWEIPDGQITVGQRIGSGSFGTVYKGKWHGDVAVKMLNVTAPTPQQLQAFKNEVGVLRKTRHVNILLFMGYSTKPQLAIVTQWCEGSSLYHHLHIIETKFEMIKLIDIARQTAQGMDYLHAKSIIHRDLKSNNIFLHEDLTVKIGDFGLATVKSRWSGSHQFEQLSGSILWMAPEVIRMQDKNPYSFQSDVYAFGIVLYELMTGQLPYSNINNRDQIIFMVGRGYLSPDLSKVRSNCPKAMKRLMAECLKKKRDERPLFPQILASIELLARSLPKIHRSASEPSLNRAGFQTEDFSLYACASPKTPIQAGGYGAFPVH
Sequence of BRAF V660E (P15056 2-766 V600E): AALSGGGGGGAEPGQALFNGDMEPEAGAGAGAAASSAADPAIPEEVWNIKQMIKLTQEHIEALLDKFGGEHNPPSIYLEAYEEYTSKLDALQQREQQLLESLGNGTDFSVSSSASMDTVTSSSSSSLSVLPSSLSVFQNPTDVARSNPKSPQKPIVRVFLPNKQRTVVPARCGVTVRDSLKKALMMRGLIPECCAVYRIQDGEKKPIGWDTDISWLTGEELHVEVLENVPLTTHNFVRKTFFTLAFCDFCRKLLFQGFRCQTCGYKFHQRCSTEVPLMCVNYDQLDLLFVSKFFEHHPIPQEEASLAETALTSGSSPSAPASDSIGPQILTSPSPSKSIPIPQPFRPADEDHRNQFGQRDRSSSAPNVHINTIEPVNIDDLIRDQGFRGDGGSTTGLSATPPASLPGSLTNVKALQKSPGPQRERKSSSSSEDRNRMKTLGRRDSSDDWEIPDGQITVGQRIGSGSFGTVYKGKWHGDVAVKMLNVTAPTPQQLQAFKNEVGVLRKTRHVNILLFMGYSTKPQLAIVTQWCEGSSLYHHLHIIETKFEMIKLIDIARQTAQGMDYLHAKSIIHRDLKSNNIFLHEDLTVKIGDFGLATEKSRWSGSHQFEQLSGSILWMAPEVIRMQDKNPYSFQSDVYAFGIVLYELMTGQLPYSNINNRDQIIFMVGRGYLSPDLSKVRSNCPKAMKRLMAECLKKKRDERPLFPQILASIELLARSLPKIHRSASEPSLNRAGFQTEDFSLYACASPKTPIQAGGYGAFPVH

SMILES | Kd (BRAF V660E) [µM] | Kd (BRAF) [µM] | EC50 [1] [µM] | Fold Selectivity HCT-116 EC50-50/ A375 [1] | IC50 [2] [µM]
CC(=O)N1CCN(CCNc2ncc3cc(-c4c(F)ccc(NS(=O)(=O)N5CC[C@@H](F)C5)c4F)c(=O)n(C)c3n2)CC1 [Example 31, (3R)-N-[3-[2-[2-(4-acetylpiperazin-1-yl)ethylamino]-8-methyl-7-oxopyrido[2,3-d]pyrimidin-6-yl]-2,4-difluorophenyl]-3-fluoropyrrolidine-1-sulfonamide] | 0.0522 | 0.021 | 6.4 | 80.2 | 0.0798
CC(=O)NCCOCCOCCNc1ncc2cc(-c3c(F)ccc(NS(=O)(=O)N4CC[C@@H](F)C4)c3F)c(=O)n(C)c2n1 [Example 32, N-[2-[2-[2-[[6-[2,6-difluoro-3-[[(3R)-3-fluoropyrrolidin-1-yl]sulfonylamino]phenyl]-8-methyl-7-oxopyrido[2,3-d]pyrimidin-2-yl]amino]ethoxy]ethoxy]ethyl]acetamide] | 0.07 | 0.0236 | ≥ 10 | >51.1 | 0.196
CC(=O)N1CCC(NC(=O)CCCNc2ncc3cc(-c4c(F)ccc(NS(=O)(=O)N5CC[C@@H](F)C5)c4F)c(=O)n(C)c3n2)CC1 [Example 33, N-(1-acetylpiperidin-4-yl)-4-[[6-[2,6-difluoro-3-[[(3R)-3-fluoropyrrolidin-1-yl]sulfonylamino]phenyl]-8-methyl-7-oxopyrido[2,3-d]pyrimidin-2-yl]amino]butanamide] | 0.0601 | 0.0249 | ≥ 10 | >3.2 | 3.17
CC(=O)NCc1cccc(CCNc2ncc3cc(-c4c(F)ccc(NS(=O)(=O)N5CC[C@@H](F)C5)c4F)c(=O)n(C)c3n2)c1 [Example 34, N-[[3-[2-[[6-[2,6-difluoro-3-[[(3R)-3-fluoropyrrolidin-1-yl]sulfonylamino]phenyl]-8-methyl-7-oxopyrido[2,3-d]pyrimidin-2-yl]amino]ethyl]phenyl]methyl]acetamide] | 0.004 | 0.0018 | 0.681 | 59.1 | 0.0115
CC(=O)NCc1ccc(CCNc2ncc3cc(-c4c(F)ccc(NS(=O)(=O)N5CC[C@@H](F)C5)c4F)c(=O)n(C)c3n2)cc1 [Example 35, N-[[4-[2-[[6-[2,6-difluoro-3-[[(3R)-3-fluoropyrrolidin-1-yl]sulfonylamino]phenyl]-8-methyl-7-oxopyrido[2,3-d]pyrimidin-2-yl]amino]ethyl]phenyl]methyl]acetamide] | 0.0221 | 0.0057 | 1.49 | 40.0 | 0.0373
CC(=O)N(C)Cc1cccc(CCNc2ncc3cc(-c4c(F)ccc(NS(=O)(=O)N5CC[C@@H](F)C5)c4F)c(=O)n(C)c3n2)c1 [Example 36, N-[[3-[2-[[6-[2,6-difluoro-3-[[(3R)-3-fluoropyrrolidin-1-yl]sulfonylamino]phenyl]-8-methyl-7-oxopyrido[2,3-d]pyrimidin-2-yl]amino]ethyl]phenyl]methyl]-N-methylacetamide] | 0.0172 | 0.0089 | 2.73 | 133.4 | 0.0205
CCN(C)S(=O)(=O)Nc1cccc(-c2cc3cnc(NCCC4CCN(C(C)=O)CC4)nc3n(C)c2=O)c1C#N [Example 37, 2-[2-(1-acetylpiperidin-4-yl)ethylamino]-6-[2-cyano-3-[[ethyl(methyl)sulfamoyl]amino]phenyl]-8-methyl-7-oxopyrido[2,3-d]pyrimidine] | 0.004 | 0.0022 | 0.463 | 9.4 | 0.0495
